Measurements taken from the supplement of paper PMC11061612.

Assays:
Assay in all cases: combination Emax (second highest fraction inhibited in the dose matrix, 72 h); higher = more inhibition; extreme values may be limits of the assay
[1] = test system: KYSE-50 (Esophageal Squamous Cell Carcinoma)
How it was run: (§1)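 Cell lines grown in DMEM/F12 or RPMI with 10% FBS were plated in 1536-well plates and held 24 hours at 37°C, 5% CO2 before 72 hours of exposure to two-drug dose matrices, with DMSO typically at 0.2%. CellTiter-Glo 2.0 luminescence gave viability, which was converted to inhibition. Vehicle wells were set to 0 and blank wells to 1. Combination Emax is the second-highest inhibition in the matrix, and Bliss excess is the observed combination effect minus the expected EA + EB − EA·EB, where EA and EB are the single-agent effects.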

[2] = test system: SNU-C1 (Colorectal Carcinoma)
How it was run: as §1

[3] = test system: NCI-H2405 (Lung Adenocarcinoma)
How it was run: as §1

[4] = test system: H-EMC-SS (Chondrosarcoma)
How it was run: as §1

EW-18 (Ewing's Sarcoma) = test system: EW-18 (Ewing's Sarcoma)
How it was run: as §1

[5] = test system: BV-173 (Chronic Myelogenous Leukemia)
How it was run: as §1

[6] = test system: EMC-BAC-2 (Non-Small Cell Lung Carcinoma)
How it was run: as §1

[7] = test system: SCC-3 (B-Cell Non-Hodgkin's Lymphoma)
How it was run: as §1

[8] = test system: KP-2 (Pancreatic Carcinoma)
How it was run: as §1

[9] = test system: NCI-H1573 (Lung Adenocarcinoma)
How it was run: as §1

[10] = test system: OVISE (Ovarian Carcinoma)
How it was run: as §1

IMR-5 (Neuroblastoma) = test system: IMR-5 (Neuroblastoma)
How it was run: as §1

[11] = test system: NCI-H2347 (Lung Adenocarcinoma)
How it was run: as §1

EW-13 (Ewing's Sarcoma) = test system: EW-13 (Ewing's Sarcoma)
How it was run: as §1

[12] = test system: SCC-9 (Oral Cavity Carcinoma)
How it was run: as §1

EW-3 (Ewing's Sarcoma) = test system: EW-3 (Ewing's Sarcoma)
How it was run: as §1

[13] = test system: MFE-319 (Endometrial Carcinoma)
How it was run: as §1

GI-1 (Glioblastoma) = test system: GI-1 (Glioblastoma)
How it was run: as §1

[14] = test system: JHH-7 (Hepatocellular Carcinoma)
How it was run: as §1

[15] = test system: DG-75 (Burkitt's Lymphoma)
How it was run: as §1

Row | SMILES | combination Emax [1] | combination Emax [2] | combination Emax [3] | combination Emax [4] | combination Emax (EW-18 (Ewing's Sarcoma)) | combination Emax [5] | combination Emax [6] | combination Emax [7] | combination Emax [8] | combination Emax [9] | combination Emax [10] | combination Emax (IMR-5 (Neuroblastoma)) | combination Emax [11] | combination Emax (EW-13 (Ewing's Sarcoma)) | combination Emax [12] | combination Emax (EW-3 (Ewing's Sarcoma)) | combination Emax [13] | combination Emax (GI-1 (Glioblastoma)) | combination Emax [14] | combination Emax [15]
1 | COc1nnc2ccc(N3CCC(c4ccc(OCCN5CCN(C)C(=O)[C@H]5C)cc4)CC3)nn12 [AZD5153] + CC1(C)CCC(CN2CCN(c3ccc(C(=O)NS(=O)(=O)c4ccc(NCC5CCOCC5)c([N+](=O)[O-])c4)c(Oc4cnc5[nH]ccc5c4)c3)CC2)=C(c2ccc(Cl)cc2)C1 [Venetoclax] (first compound max 1 µM, 7x7, partner max 1 µM) | 0.501 | 0.46 | 0.319 | 0.27 | 0.615 | 0.921 | 0.661 | 0.887 | 0.354 | 0.356 | 0.549 | 0.885 | 0.331 | 0.481 | 0.407 | 0.751 | 0.324 | 0.763 | 0.348 | 0.887
2 | Cn1cnc2c(F)c(Nc3ccc(Br)cc3Cl)c(C(=O)NOCCO)cc21 [Selumetinib] + C[C@@H]1COCCN1C2=NC(=NC(=C2)C3(CC3)[S@](=N)(=O)C)C4=C5C=CNC5=NC=C4 [AZD6738] (first compound max 10 µM, 7x7, partner max 10 µM) | 0.573 | 0.641 | 0.401 | 0.296 | 0.696 | 0.947 | 0.557 | 0.933 | 0.483 | 0.663 | 0.54 | 1 | 0.382 | 0.623 | 0.463 | 0.822 | 0.752 | 0.781 | 0.311 | 0.807
3 | Cc1c2c(nn1C)CSCc1cc(n(C)n1)CSc1cc(c3ccccc3c1)OCCCc1c(C(=O)O)n(C)c3c-2c(Cl)ccc13 [AZD5991] + Cn1cnc2c(F)c(Nc3ccc(Br)cc3Cl)c(C(=O)NOCCO)cc21 [Selumetinib] (first compound max 1 µM, 7x7, partner max 3 µM) | 0.292 | 0.695 | 0.483 | 0.563 | 0.927 | 0.938 | 0.834 | 0.639 | 0.749 | 0.586 | 0.291 | 0.983 | 0.41 | 0.338 | 0.654 | 0.549 | 0.604 | 0.726 | 0.278 | 0.112
4 | C[C@@H]1COCCN1c1cc(C2([S@](C)(=N)=O)CC2)nc(-c2ccnc3[nH]ccc23)n1 [AZD6738] + O=C(c1cc(Cc2n[nH]c(=O)c3ccccc23)ccc1F)N1CCN(C(=O)C2CC2)CC1 [Olaparib] (first compound max 10 µM, 7x7, partner max 10 µM) | 0.437 | 0.347 | 0.28 | 0.419 | 0.666 | 0.988 | 0.446 | 0.994 | 0.142 | 0.531 | 0.663 | 0.958 | 0.385 | 0.757 | 0.314 | 0.962 | 0.567 | 0.926 | 0.339 | 0.835
5 | CN(CCO)CC[C@H](CSc1ccccc1)Nc1ccc(S(=O)(=O)NC(=O)c2ccc(N3CCC([C@@H](O)c4ccccc4-c4ccc(Cl)cc4)CC3)cc2)cc1S(=O)(=O)C(F)(F)F [AZD4320] + C=CCn1c(=O)c2cnc(Nc3ccc(N4CCN(C)CC4)cc3)nc2n1-c1cccc(C(C)(C)O)n1 [AZD1775] (first compound max 1 µM, partner max 1 µM) | 0.476 | 0.613 | 0.193 | 0.402 | 0.888 | 0.958 | 0.425 | 0.779 | 0.912 | 0.291 | 0.939 | 0.983 | 0.571 | 0.665 | 0.281 | 0.962 | 0.944 | 1 | 0.524 | 0.82
6 | Cc1c2c(nn1C)CSCc1cc(n(C)n1)CSc1cc(c3ccccc3c1)OCCCc1c(C(=O)O)n(C)c3c-2c(Cl)ccc13 [AZD5991] + CCN(CCO)CCCOc1ccc2c(Nc3cc(CC(=O)Nc4cccc(F)c4)[nH]n3)ncnc2c1 [AZD2811] (first compound max 1 µM, 7x7, partner max 1 µM) | 0.556 | 0.415 | 0.221 | 0.392 | 0.919 | 0.95 | 0.823 | 0.51 | 0.264 | 0.425 | 0.376 | 1 | 0.213 | 0.454 | 0.293 | 0.771 | 0.603 | 0.9 | 0.453 | 0.229
7 | Cc1c2c(nn1C)CSCc1cc(n(C)n1)CSc1cc(c3ccccc3c1)OCCCc1c(C(=O)O)n(C)c3c-2c(Cl)ccc13 [AZD5991] + CC1(C)CCC(CN2CCN(c3ccc(C(=O)NS(=O)(=O)c4ccc(NCC5CCOCC5)c([N+](=O)[O-])c4)c(Oc4cnc5[nH]ccc5c4)c3)CC2)=C(c2ccc(Cl)cc2)C1 [Venetoclax] (first compound max 1 µM, 7x7, partner max 1 µM) | 0.418 | 0.574 | 0.175 | 0.515 | 0.919 | 0.95 | 0.694 | 0.358 | 0.239 | 0.302 | 0.442 | 0.995 | 0.138 | 0.675 | 0.256 | 0.953 | 0.881 | 0.954 | 0.221 | 0.144
8 | COc1nnc2ccc(N3CCC(c4ccc(OCCN5CCN(C)C(=O)[C@H]5C)cc4)CC3)nn12 [AZD5153] + C[C@@H]1COCCN1C2=NC(=NC(=C2)C3(CC3)[S@](=N)(=O)C)C4=C5C=CNC5=NC=C4 [AZD6738] (first compound max 1 µM, 7x7, partner max 10 µM) | 0.804 | 0.693 | 0.511 | 0.321 | 0.781 | 0.95 | 0.816 | 0.986 | 0.432 | 0.709 | 0.754 | 1 | 0.525 | 0.831 | 0.45 | 0.851 | 0.785 | 0.97 | 0.324 | 0.909
9 | Cc1c2c(nn1C)CSCc1cc(n(C)n1)CSc1cc(c3ccccc3c1)OCCCc1c(C(=O)O)n(C)c3c-2c(Cl)ccc13 [AZD5991] + C[C@@H](Nc1cc(F)cc(F)c1)c1cc(C(=O)N(C)C)cc2c(=O)cc(N3CCOCC3)oc12 [AZD8186] (first compound max 1 µM, 7x7, partner max 3 µM) | 0.317 | 0.439 | 0.165 | 0.476 | 0.94 | 0.93 | 0.632 | 0.409 | 0.254 | 0.318 | 0.325 | 0.955 | 0.279 | 0.454 | 0.378 | 0.636 | 0.401 | 0.883 | 0.169 | 0.219
10 | CCc1c2c(nc3ccc(O)cc13)-c1cc3c(c(=O)n1C2)COC(=O)[C@]3(O)CC [SN-38] + CN(C)CCCOc1ccc(-c2ccc3ncc4c(c3c2)n(C2CCOCC2)c(=O)n4C)cn1 [AZD0156] (first compound max 0.3 µM, 7x7, partner max 1 µM) | 0.171 | 0.419 | 0.448 | 0.643 | 0.633 | 0.981 | 0.594 | 1 | 0.404 | 0.228 | 0.181 | 0.993 | 0.564 | 0.734 | 0.392 | 0.838 | 0.243 | 0.974 | 0.208 | 0.856
11 | CN(CCO)CC[C@H](CSc1ccccc1)Nc1ccc(S(=O)(=O)NC(=O)c2ccc(N3CCC([C@@H](O)c4ccccc4-c4ccc(Cl)cc4)CC3)cc2)cc1S(=O)(=O)C(F)(F)F [AZD4320] + CCN(CCO)CCCOc1ccc2c(Nc3cc(CC(=O)Nc4cccc(F)c4)[nH]n3)ncnc2c1 [AZD2811] (first compound max 1 µM, 7x7, partner max 1 µM) | 0.382 | 0.531 | 0.137 | 0.521 | 0.888 | 0.965 | 0.417 | 0.316 | 0.921 | 0.27 | 0.828 | 1 | 0.476 | 0.754 | 0.333 | 0.949 | 0.647 | 0.771 | 0.538 | 0.196
12 | C=CCn1c(=O)c2cnc(Nc3ccc(N4CCN(C)CC4)cc3)nc2n1-c1cccc(C(C)(C)O)n1 [AZD1775] + C[C@@H]1COCCN1C2=NC(=NC(=C2)C3(CC3)[S@](=N)(=O)C)C4=C5C=CNC5=NC=C4 [AZD6738] (first compound max 1 µM, partner max 10 µM) | 0.694 | 0.624 | 0.355 | 0.606 | 0.66 | 0.988 | 0.571 | 1 | 0.297 | 0.694 | 0.777 | 0.986 | 0.449 | 0.653 | 0.434 | 0.804 | 0.825 | 0.984 | 0.642 | 0.978
